From patent publication US7625567B1, “Induction of immune responses to isoaspartyl-modified antigens” (Yale University, priority 2001, dated 2009)
Numbered stars: 1 amine (or outer) side, 2 acyl side, 3 side chain; on linkers, the order of the positions; unused ones are H or OH. Square brackets hold non-standard residues; d marks the D form. Ends that are not written are not given here. βAsp = O=C(O)[C@H](CC(=O)[*:2])N[*:1]

Legend:
[1] = test system: TRP-2 specific CD8 T cells; experiment: MHC class I (H-2 Kb) TRP-2 tetramer staining of CD8 T cells after immunization; type: in vivo, mice; conditions: 50 μg s.c. in CFA, day 14 lymph node cells, 5 day culture with isoaspartyl TRP-2 10 μg/ml
Protocol: FIG. 9 illustrates that CD8 T cells specific for the TRP-2 peptide are elicited by immunization with isoaspartyl TRP-2 peptide. Mice were immunized subcutaneously with 50 μg of isoaspartyl TRP-2 emulsified in CFA. At day 14 after immunization, lymph node cells were removed and single cell suspensions (4×10^6 cells/ml) were incubated in culture with isoaspartyl TRP-2 peptide (10 μg/ml) for 5 days (37° C., 5% CO2). Living cells were purified by Ficoll-hypaque and incubated with anti-CD8-FITC antibody (Promega Inc.) and MHC class I (H-2 Kb) tetramers linked to PE, as indicated. Tetramer staining was performed with a control, non-specific peptide (SIINFEKL) (SEQ ID NO:4) and with aspartyl and isoaspartyl TRP-2 peptide tetramers, as indicated.

B16F10 melanoma cells = experiment: Anti-tumor antibody response: serum binding to B16F10 cells by flow cytometry; type: in vivo, mice; conditions: 50 μg peptide s.c., serum day 28, 1/100 dilution, anti-mouse IgG-FITC
Protocol: FIG. 8 illustrates that immunization with isoaspartyl TRP-2 elicits anti-tumor antibody responses. Mice were immunized subcutaneously with 50 μg of isoaspartyl or aspartyl TRP-2 peptide, as indicated. Mice were bled at day 28 post immunization. Serum (1/100 dilutions in phosphate buffered saline (PBS)) was incubated with B16F10 melanoma cells (5×10^5 cells) and analyzed by flow cytometry after the detection of bound antibody with anti-mouse IgG-FITC.

[2] = test system: B16F10 melanoma tumor masses; experiment: CD8 T cell influx into B16F10 melanoma tumor tissue (immunohistochemistry); type: in vivo, mice; conditions: 50 μg in CFA s.c.; challenge day 21 with 0.5×10^6 B16F10 cells; tumors day 14 after challenge
Protocol: FIG. 11 illustrates an influx of CD8 T cells into melanoma tumor tissues of mice immunized with isoaspartyl TRP-2 immunized mice. […] For these studies, mice were immunized with isoaspartyl or aspartyl TRP-2 (50 μg in CFA), by subcutaneous route. At day 21, mice were challenged with 0.5×10^6 B16F10 melanoma cells by subcutaneous route. At day 14 after tumor cell challenge, tumor masses were removed and stain for CD8 T cells by conventional immunohistochemistry.

[3] = test system: EL-4 target cells pulsed with TRP-2; experiment: Cytotoxicity of CD8 T cells from immunized mice against peptide-pulsed EL-4 target cells (Cytotox 96); type: in vivo; conditions: 50 μg in CFA s.c.; effector to target ratios 5:1, 10:1, 20:1; EL-4 targets
Protocol: FIG. 10 illustrates that immunization with isoaspartyl TRP-2 peptide elicits CD8 T cells that kill tumor peptide bearing target cells. Mice were immunized with isoaspartyl or aspartyl TRP-2 (50 μg in CFA), by subcutaneous route. Lymph node cells were expanded in vitro for 5 days with isoaspartyl TRP-2 as described above. After 5 days, purified effector CD8 T cells were mixed with EL-4 target cells pulsed with isoaspartyl TRP-2, aspartyl TRP-2, or unpulsed EL-4 cells, as indicated. Averages of triplicate cultures are reported for effector to target ratios of 5:1, 10:1, and 20:1. Cytotoxicity was performed by commercial non-radioactive methods (Ctyotox 96, Promega, Inc.) according to the manufacturer's instructions. As indicated in the upper panel of FIG. 10, mice immunized with isoaspartyl TR-2 peptide kill up to 35% of TRP-2 pulsed target cells.

[4] = test system: TRP-2 peptide pulsed syngeneic spleen cells; experiment: In vivo CTL assay: killing of tumor peptide pulsed target cells; design: species or system mice; conditions: 50 μg in CFA s.c., day 21, 16 hours
Protocol: In this approach, groups of 6 mice were immunized with isoaspartyl or aspartyl TRP-2 (50 μg in CFA), by subcutaneous route. At day 21 mice were examined for their ability to kill tumor peptide pulsed target cells (in vivo CTL assays) modified by the protocol of Coles, et al. (J. Immunol. 168:834-838 (2002)). In brief, two populations of syngeneic target spleen cells are labeled with low or high concentrations of CFSE (0.5 μM or 5.0 μM CFSE, respectively). Spleen cells labeled with 5.0 μM CFSE are pulsed with isoaspartyl or aspartyl TRP-2 peptide (1 μg/ml) as the in vivo target cell population. Both high CFSE labeled/TRP-2 peptide pulsed and low CFSE labeled/unpulsed spleen cells (1×10^7 cells for each population) are transferred by intravenous route into immunized mice as described above. Mice were sacrificed at 16 hours and in vivo lysis of peptide pulsed targets is defined by flow cytometry technology as: Ratio=% CFSE low/% CFSE high % Specific Killing=[1−(ratio in control immunized/ratio in immunized)×100].

[5] = test system: CD8 T cells stimulated with isoaspartyl or aspartyl TRP-2 pulsed APCs; experiment: CD8 T cell proliferation after immunization with TRP-2 peptide; type: in vivo, C57B1/6 mice; conditions: 50 μg peptide s.c. in CFA, day 7 lymph node CD8 T cells
Protocol: FIG. 7 illustrates that immunization with isoaspartyl TRP-2 peptide elicits CD8 T cells that proliferate in response to stimulation with isoaspartyl or aspartyl TRP-2 peptide. For these studies, C57B1/6 mice are immunized subcutaneously with 50 μg of either isoaspartyl TRP-2 peptide or aspartyl TRP-2 peptide emulsified in complete Freund's adjuvant (CFA). After 7 days, lymph node cells are collected and CD8 T cells are purified by magnetic bead depletion of CD4+, B220+, CD11c+ cells. CD8 T cells (1×10^5) are incubated for 3 days in tissue culture (37° C., 5% CO2) with irradiated splenic antigen presenting cells (APCs; 5×10^5 cells) pulsed with isoaspartyl TRP-2 or aspartyl TRP-2 in the concentrations as indicated.

B16 melanoma cells = experiment: Isoaspartyl content of living B16 melanoma cells after adenosine dialdehyde treatment (ISOQUANT assay); type: cell-based, murine; conditions: 30 μM adenosine dialdehyde, 48 h
Protocol: Isoaspartyl residues were detected by the enzyme, protein isoaspartyl methyltransferase, according to the manufacturer's protocol (ISOQUANT™ Protein Deamidation Detection Kit, Promega Corp., Madison, Wis.). In brief, samples and control peptides are incubated 30 min. at 30 C in a reaction mixture containing protein isoaspartyl methyltransferase, [^3H}S-adenosyl-L-methionine, and cold S-adenyl-L-methionine. The reaction is stopped at pH 10 on ice and volatile [^3H]methanol is condensed in the reaction vessel. Fifty μl of sample is adsorbed to a sponge attached to the cap of a scintillation vial. The sample is incubated 60 min. at 40 C to volatize [^3H]methanol into the scintillation mixture and counted for counts/min. […]
Briefly, selected cells, such as B16-F0 melanoma cells, are grown to confluency. The cells are then exposed to trypsin and counted. […] The cells are next harvested using trypsin, washed, and counted. […] Protein concentration is determined in both the supernatant and the pellet. Isoaspartyl generation is determined by ISOQUANT assay described above.
In cell culture, B16 cells were incubated with 30 μM adenosine dialdehyde for 48 h as described above. […] Isoaspartyl content was determined as described above.

B16F10 tumor cells = experiment: Survival of immunized mice challenged with B16F10 tumor cells; type: in vivo; conditions: 50 μg in CFA s.c.; challenge s.c. day 21 with 0.5×10^6 cells; groups of 10 mice
Protocol: For these studies, groups of 10 mice were immunized with isoaspartyl or aspartyl TRP-2 (50 μg in CFA), by subcutaneous route as described above. Mice were challenged subcutaneously at day 21 with 0.5×10^6 cells. Survival was assessed every 3 days.

[6] = test system: B and T cell compartments; conditions: mice immunized with peptide (Mamula et al. 1999); cited from earlier work
[7] = target cells transferred: Asp TRP-2 pulsed
[8] = target cells transferred: Isoasp TRP-2 pulsed

Compound	TRP-2 specific CD8 T cells bound by aspartyl and isoaspartyl TRP-2 tetramers [1]	anti-tumor antibodies binding B16F10 cells (B16F10 melanoma cells)	influx of CD8 T cells into tumor masses [2]	killing of TRP-2 pulsed target cells [3]	% Specific Killing [4, 7] [%]	% Specific Killing [4, 8] [%]	CD8 T cell response to stimulation with isoaspartyl or aspartyl TRP-2 peptide [5]	isoaspartyl content compared to untreated B16 cells (B16 melanoma cells)	survival after B16F10 challenge (B16F10 tumor cells)	B and T cell response to immunization [6]
Aspartyl TRP-2: TRP-2 peptide (sequence 181-188) synthesized with an aspartic acid residue at 183 (SEQ ID NO:2) (VYDFFVWL; Human)	failed to stimulate TRP-2 specific CD8 T cells	little or no anti-tumor antibodies are detected	fail to show CD8 T cells in the tumor masses	fail to elicit cytotoxic T cell responses	5	22	fails to elicit any detectable T cell responses	–	–	–
Nc1ncnc2c1ncn2C(C=O)OC(C=O)CO (centres unmarked) [adenosine dialdehyde]	–	–	–	–	–	–	–	enhanced from two to five fold	–	–
Isoaspartyl TRP-2: TRP-2 peptide (sequence 181-188) synthesized with an isoaspartyl amino acid modification at residue 183 (SEQ ID NO:3) (VY[βAsp]FFVWL)	profoundly stimulated the growth of CD8 T cells that were bound by aspartyl and isoaspartyl TRP-2 tetramers	effectively bind B16F10 cells	significant influx of CD8 T cells	up to 35%	56	60	elicits cross reactive T cells that respond to stimulation with either isoaspartyl or aspartyl TRP-2 peptide	–	greater survival as compared to mice immunized with aspartyl TRP-2 or CFA control immunizations	–
murine cytochrome c peptide 90-104: murine cytochrome c peptide 90-104, normal aspartyl form (ERADLIAYLKKATNE; UniProt P62897 91-105, looked up, fragment)	–	–	–	–	–	–	–	–	–	no response by the B or T cell compartments
